Data as given in a melting point compilation (Tetko et al.; mined from patent text by program, amines drawn as free bases though some values may be those of a salt).

In the case of `COc1cc(CC(=O)Nc2ccc(C3CN(C(=O)c4ccccc4)CC3C(=O)O)cc2)ccc1NC(=O)Nc1ccccc1C` (configuration not stated), the melting point is reported as 248 °C.
`COc1cn(-c2ccc(N3CCOCC3)cc2F)nc(-c2ccnn2-c2ccccc2)c1=O` showed a melting point of 226 to 228 °C.
`O=C(O)[C@@H]1CSCN1C(=O)OCc1ccccc1` gave a melting point of 58 to 63 °C.
In the case of `Cn1c(=O)n(C)c2cc(C(=O)CSCCC(=O)O)c(Cl)cc21`, the melting point is reported as 148 to 150 °C.
With `NC(=S)Cc1cccc(-c2nc(=O)c3ccccc3s2)n1` the melting point was 257 °C.
With `COc1ccc(C2=C(c3c[nH]c4ccccc34)C(=O)NC2=O)cc1OC` the melting point was 210 °C.
Work on `CCC1CS(=O)(=O)c2ccccc2C2(c3ccccc3)OC12` (configuration not stated) yielded a melting point of 185 to 186 °C.
With `O=C(O)Cc1ccc(N2CC3=C(CC=CC3)C2=O)cc1` the melting point was 198 to 200 °C.
With `NC1=NC(c2cccc(-c3cccnc3F)c2)(c2ccc3c(c2)OCCO3)C2=NCCCN12` (configuration not stated) the melting point was 125 to 140 °C.
Work on `Cc1cc2c(cc1F)C(C)(C)CCC2(C)C` yielded a melting point of 90 to 91.8 °C.
Compound `O=C1CCC(c2ccccc2F)c2ccccc2N1` (configuration not stated) has a melting point of 210 to 212 °C.
With `Cc1ccc2ccccc2c1Cn1ccnc1` the melting point was 98 to 98.5 °C.
`CCOC(=O)/C=C(C)/C=C/C=C(\C)C1=Cc2cc(Cl)cc(C)c2OC1` gave a melting point of 107 °C.
For `CC(=O)O[C@H]1C=C[C@@H](O)C1`, the melting point was 48 to 49 °C.
Work on `NC(=O)c1cnc(C(N)=O)cn1` yielded a melting point greater than 270 °C.
For `Cc1c(C=CC#N)c2c(c(C)c1OCc1ccccc1)CCC(C)(C)O2`, the melting point was 108 °C.
In the case of `O=S(=O)(c1ccc(O)cc1)c1ncsc1-c1ccccc1`, the melting point is reported as 195 °C.
`CC(Oc1ccc(C(=O)c2ccc(O)cc2)c(Cl)c1Cl)C(=O)O` (configuration not stated) gave a melting point of 208 to 212 °C.
In the case of `CC1CC(=O)NN=C1c1ccc(NC(=O)C2(C)CC2)cc1` (configuration not stated), the melting point is reported as 235 to 237 °C.
Work on `COc1cc(CC(=O)CCNCCOc2ccc(C(=O)O)cc2OC)ccc1NC(=O)Nc1ccccc1C` yielded a melting point of 115 to 118 °C.
Work on `Nc1ncc(Cc2cccc(-c3ccccc3)c2)c(N)n1` yielded a melting point of 108 to 115 °C.
Work on `CCC(O)(CC)[C@H](Nc1nnc(-c2c(OS(=O)(=O)C(F)(F)F)ccc3ccccc23)c2ccccc12)c1ccccc1` yielded a melting point of 117 to 119 °C.
With `c1ccc(C(NC23CC4CC(C2)CC(OCc2ccc(-c5nc6ccccc6o5)cc2)(C4)C3)(c2ccccc2)c2ccccc2)cc1` the melting point was 174 to 177 °C.
For `CCOC(=O)C(O)c1cc(Br)cn1CCOC(C)=O` (configuration not stated), the melting point was 59 °C.
Work on `N#CCc1ccc(Oc2ccc3c(c2)S(=O)(=O)NC2CCCN32)cc1` (configuration not stated) yielded a melting point of 156 to 158 °C.
`CN(C)CCCC(C(N)=O)c1ccccc1-c1ccccc1` (configuration not stated) showed a melting point of 108 to 110 °C.
In the case of `N=C(NO)c1cnc(Cl)c(Cl)c1`, the melting point is reported as 182 to 184 °C.
`CC1CN(c2c(F)cc3c(=O)c(C(=O)O)cn(CCF)c3c2F)CC1CN` (configuration not stated) showed a melting point of 228 to 232 °C.
Work on `C=C1c2ccc(OC)cc2CC(=NO)c2ccccc21` yielded a melting point of 125 to 127 °C.
`COc1ccc(CNc2nccc(-c3c[nH]nc3-c3ccc(F)cc3)n2)cc1` gave a melting point of 183 to 185 °C.
In the case of `Nc1cccc(-c2ccc(OCC3CCN3)c3ccccc23)n1` (configuration not stated), the melting point is reported as 135 to 150 °C.
Work on `COc1cc(N)c(Cl)cc1C(=O)NCC1CCCN1C1CCCCC1` (configuration not stated) yielded a melting point of 123 to 124 °C.
In the case of `COC(=O)c1cnc(OC)c(N)c1`, the melting point is reported as 108 to 109 °C.
Compound `Nc1nc2cc3nc(NC(=O)CCl)sc3cc2s1` has a melting point of 300 °C.
`CCc1ccc(C(=O)O)c([N+](=O)[O-])c1` showed a melting point of 111 °C.
In the case of `c1ccc2nc(COc3ccc(NC4CCCC4)cc3)ccc2c1`, the melting point is reported as 88 °C.
`CS(=O)(=O)Nc1cc(N)c(F)cc1C#N` showed a melting point of 235 °C.
`CCc1nc2c(Cl)nc(C)cc2n1Cc1ccccc1` showed a melting point of 140 to 141 °C.
In the case of `COc1cccc2c1OC(COS(=O)(=O)c1ccc(C)cc1)CO2` (configuration not stated), the melting point is reported as 66 to 68 °C.
Compound `CS(=O)(=O)N(c1ccc(C#CCCN2CC=C(c3ccccc3)CC2)nc1)S(C)(=O)=O` has a melting point of 168 to 170 °C.
Compound `CC1CCC(=NN)c2ncc(C(=O)NN)c(=O)n21` (configuration not stated) has a melting point of 219 to 220 °C.
`CCCCOCCOc1ccc(-c2ccc(N3CCC(C)CC3)c(C=C(C)C(=O)O)c2)cc1` showed a melting point of 154 to 155 °C.
For `CC(=O)Nc1ccc2c(c1)OC(C)(C)C=C2`, the melting point was 80 to 81 °C.
For `CC(C)Cn1c(CC(C)O)nc2c(N)nc3ccccc3c21` (configuration not stated), the melting point was 196 to 198 °C.
With `COc1cc(N2CCC(N3CCOCC3)CC2)ccc1-c1nc2c(N[C@H]3[C@@H](C(N)=O)[C@@H]4C=C[C@H]3C4)c(Br)cnc2[nH]1` the melting point was 185 to 195 °C.
For `COc1c(N2CCC(O)C2)c(F)cc2c(=O)c(C(=O)O)cn(C3CC3)c12` (configuration not stated), the melting point was 253 to 254 °C.
`COc1cc(OC)cc(C(=O)c2ccc(OC(F)F)c(OC(F)F)c2)c1` gave a melting point of 60 to 62 °C.
Work on `O=C(CC(c1ccccc1)(c1ccccc1)c1ccccc1)N1CCC(O)(Cc2ccccc2)CC1` yielded a melting point of 150 to 166 °C.
`O=C(O)c1ccccc1-c1ccc([N+](=O)[O-])cn1` showed a melting point of 262 to 264 °C.
Work on `O=C(NCC(=O)N1CCSC1)c1cc2cc(Cl)ccc2[nH]1` yielded a melting point of 253 to 255 °C.
Work on `NCCc1cc(Cl)c(NC(=O)CN2CCN(CCCCC(c3ccc(F)cc3)c3ccc(F)cc3)CC2C(N)=O)c(Cl)c1` (configuration not stated) yielded a melting point of 161 °C.
Compound `O=C1C=CC(OC2CCCCC2)N1S(=O)(=O)c1ccccc1` (configuration not stated) has a melting point of 104 to 106 °C.
`Cc1ccc(-n2nc(C(F)(F)F)cc2-c2ccc(S(C)(=O)=O)c(F)c2)cc1Cl` showed a melting point of 144 to 145 °C.
With `O=C1CC2CCc3ccccc3C2=NN1c1ccccc1O` (configuration not stated) the melting point was 221 to 222 °C.
Work on `Cn1ccnc1Sc1cc(Cl)ccc1N` yielded a melting point of 116 to 120 °C.
Compound `COc1cc2c(cc1Nc1ncc(Cl)c(Nc3ccc(C(N)=O)cc3OC)n1)CCN(CC(=O)N(C)C)CC2` has a melting point of 113 to 131 °C.
`COCCNC(=O)c1cccc(-c2cccc3cc(Cc4cccc(C(C)=O)c4)sc23)c1` gave a melting point of 81 to 82 °C.
In the case of `CC(C)NCC(O)COc1ccc2c(=O)cc(-c3ccc(O)c(O)c3)oc2c1` (configuration not stated), the melting point is reported as 187 °C.
`O=C1NCN(c2ccccc2)C12CCN(C[C@@H]1CCc3ccc(Cl)cc3[C@H]1O)CC2` (relative stereo) gave a melting point of 248 to 249 °C.
In the case of `C=CCn1ncc(=O)[nH]c1=O`, the melting point is reported as 133 °C.
With `O=c1[nH]c2ccccc2n1CC1CCN(CC(O)COc2ccc(Cl)cc2)C1` (configuration not stated) the melting point was 129 °C.
With `CCCn1cc(Cc2ccc(C(=O)NS(=O)(=O)c3ccccc3C)cc2OC)c2cc(CC3CCN(C)C3=O)ccc21` (configuration not stated) the melting point was 103 to 115 °C.
In the case of `CC(C)(C)C(O)C(Cn1ccnc1)Oc1ccc(Cl)cc1` (configuration not stated), the melting point is reported as 163 to 170 °C.
`NC(=O)c1nc(-c2cccnc2Cl)nc2c1[nH]c(=O)n2-c1ccccc1` gave a melting point of 283 to 286 °C.
`Cc1ccc2[nH]c(C(=O)c3ccc(Cl)cc3)c(CC(=O)O)c2c1` showed a melting point of 194 to 197 °C.
In the case of `CC(=O)OC1C(=O)N(c2nnc(C(C)(C)C)s2)C(=O)N1C` (configuration not stated), the melting point is reported as 168 °C.
`CN(C)C=C1CN=Cc2ccccc2C1=O` showed a melting point of 131 to 133 °C.
For `COC(=O)c1cc(=O)c2c(C(F)(F)F)c3c(=O)cc(C(=O)OC)[nH]c3c(Cl)c2[nH]1`, the melting point was 205 to 208 °C.
`CC(C)c1cccc(C(C)C)c1NC(=O)N(Cc1ccc(O)cc1)CC1(c2c[nH]cn2)CCCCC1` gave a melting point of 185 to 188 °C.
Compound `C=C(c1ccc(F)cc1)c1ccccc1Cl` has a melting point of 73 to 74 °C.
For `Cn1c(C(F)(F)F)cc(=O)n(-c2ccc3snc(C4OCC(O)(CBr)CO4)c3c2)c1=O` (configuration not stated), the melting point was 105 to 110 °C.
Compound `COc1cc(NC(C)=O)c(Cl)cc1C(=O)NN1CCN(CCC(C)C)CC1` has a melting point of 128 to 130 °C.
For `C=C(C)COc1ccc(C(=O)C=Cc2ccc(F)cc2)c2oc3ccccc3c(=O)c12`, the melting point was 135 to 137 °C.
With `O=C1CCCN1C1=NC(CF)(CF)Oc2ccc([N+](=O)[O-])cc21` the melting point was 195 to 198 °C.
`Cc1cccc(SCc2c(CCN(C)C)[nH]c3ccccc23)c1` showed a melting point of 75 to 78 °C.
Compound `O=[N+]([O-])c1ccc(C2=NNC(CO)Cc3cc4c(cc32)OCO4)cc1` (configuration not stated) has a melting point of 132 to 134 °C.
Compound `OCCn1nccc1-c1ccc(Oc2ccc(F)cc2)cc1` has a melting point of 71 to 72 °C.
Compound `Cc1cncc(-c2ccc(OC3SCC(O)C(O)C3O)cn2)c1` (configuration not stated) has a melting point of 165 to 166 °C.
Compound `COc1ccc(C=Cc2ccc(OC)c(OC)c2)cc1` has a melting point of 131 to 134 °C.
Compound `CCOC(=O)C(C(=O)OCC)c1cccc(C(=O)c2ccc(Cl)cc2)c1[N+](=O)[O-]` has a melting point of 96 to 100 °C.
For `COc1ccc(-c2nc3cc(Cl)c(Cl)cc3[nH]2)cc1N`, the melting point was greater than 300 °C.
`CSc1ccc(C2=CC(=O)C3(CCOCC3)O2)cc1` showed a melting point of 135 to 138 °C.
For `CCC(C)N(C)C(=O)c1cc(-c2ccccc2F)c2sccc2c1` (configuration not stated), the melting point was 89 °C.
With `O=Cc1ccc(C(=O)Nc2nccs2)cc1` the melting point was 189 °C.
In the case of `COc1ccccc1Nc1ncccc1[N+](=O)[O-]`, the melting point is reported as 151 to 153 °C.
`CCCc1nc2c(N)nc3ccccc3c2n1CC1(C(N)=O)CCC1` showed a melting point of 234 to 237 °C.
Compound `O=C1C(=O)c2ccccc2C2=C1SCC(CN1CCN(c3ccc(F)cc3)CC1)O2` (configuration not stated) has a melting point of 180 to 182 °C.
`O=C1CC2Cc3cc(N4CCCCC4)ccc3C2=NN1` (configuration not stated) showed a melting point of 252 to 254 °C.
`CC(=O)NC1Cc2cn(S(=O)(=O)c3c(C(C)C)cc(C(C)C)cc3C(C)C)c3cccc(c23)C1=O` (configuration not stated) showed a melting point of 159 to 162 °C.
In the case of `CC(=O)N1CCc2cc(C(=O)CN(Cc3ccccc3)Cc3ccccc3)ccc21`, the melting point is reported as 130 °C.
`COC(=O)CNc1cccc(C(N)=O)c1` showed a melting point of 146 to 147 °C.
`CCOCc1c2c(cc3c(=O)cc(C(=O)O)oc13)CCCC2` showed a melting point of 239 °C.
`O=C(O)c1ccccc1NCCNc1ccccc1F` gave a melting point of 127 to 128 °C.
With `O=C(CCl)c1ccc(Oc2ccc(C(=O)CCl)cc2)cc1` the melting point was 129 to 130 °C.
In the case of `Nc1nc2c([N+](=O)[O-])cc(OC(F)(F)F)cc2s1`, the melting point is reported as 260 °C.
`CN(C)Cc1cc2cc(C(=O)NN)ccc2o1` showed a melting point of 82 to 92 °C.
For `O=C(c1cccnc1Cl)N(O)C1CCCCC1`, the melting point was 151 to 153 °C.
For `Cc1c(C(=O)Nc2ccc(N3CCC(N4CCOCC4)CC3)c(Cl)c2)cnn1-c1ccc(Cl)cc1`, the melting point was 238 to 240 °C.
For `CCc1nc(N)nc(N)c1-c1ccccc1Cl`, the melting point was 197 to 198 °C.
In the case of `c1ccc2c(c1)cnn2-c1nc(NC2CCCCC2)c2ccccc2n1`, the melting point is reported as 278 to 281 °C.
In the case of `CCCOc1ccccc1-c1nc2cc3ncn(CC)c3cc2c(=O)[nH]1`, the melting point is reported as 212 to 214 °C.
Compound `CCOC(=O)c1[nH]c2cc(Br)c(Cl)cc2c1-c1ccccc1` has a melting point of 205 to 206 °C.
